pIC50: −log10 of the molar value. Where a name gives a salt, the structure may show the parent alone.
Experiments:
[1] = system: STF reporter gene for WNT pathway (Porcupine of the Wnt signaling pathway); test: Inhibitory activity on Super-Top-Flash (STF) reporter gene; type: cell-based; details: HEK293 STF and L wnt3A cells 1:1, 24 hours, Bright-Glo
Description: 1. Assay of Inhibitory Activity on Super-Top-Flash (STF) Reporter Gene
HEK293 STF and L wnt3A cells were planted at a ratio of 1:1 in a white 96-well plate with 80 μL of cell suspension per well, which contained 20,000 HEK293 STF cells and 20,000 L wnt3A cells. The cell plate was placed in a carbon dioxide incubator for culture overnight.
The assay compound was serially diluted 5-fold with a discharge gun to the 8th concentration, that is, from 400 μM to 5.12 nM, in duplicate. 78 μL of medium was added to the middle plate, and then 2 μL of the serially diluted compound was transferred to each well of the middle plate according to the corresponding position. After mixing, 20 μL of the mixture was transferred to each well of the cell plate. The cell plate was placed in a carbon dioxide incubator for 24 hours.
100 μL of Promega Bright-Glo reagent was added to each well of the cell plate, and the cell plate was incubated at room temperature for 10 minutes to stabilize the luminescence signal. A multi-label analyzer was used to read results.
The original data of the multi-label analyzer was used for calculation, and the value of IC50 can be obtained by curve fitting. Table 1 provides data of the inhibitory activity of the compounds of the present disclosure on the Wnt signaling pathway.

[2] = system: Capan-2 cells; test: Anti-proliferative activity on Capan-2 cells; type: cell-based; details: Homo sapiens, Capan-2, 120 h; 5 days, CellTiter-Glo
Description: 2. Assay of Anti-Proliferative Activity on Capan-2 Cells
Capan-2 cells were planted in a white 96-well plate with 80 μL of cell suspension per well, which contained 5000 Capan-2 cells. The cell plate was placed in a carbon dioxide incubator for culture overnight.
The assay compound was serially diluted 3-fold with a discharge gun to the 9th concentration, that is, from 200 μM to 30 nM, in duplicate. 78 μL of medium was added to the middle plate, and then 2 μL of the serially diluted compound was transferred to each well of the middle plate according to the corresponding position. After mixing, 20 μL of the mixture was transferred to each well of the cell plate. The cell plate was incubated in a carbon dioxide incubator for 5 days. Another cell plate was prepared, and read on the day of drug addition. The signal value was used as the maximum value (The value of Max in the equation below) in data analysis. 25 μL of chemiluminescence detection reagent for cell viability was added to each well of this cell plate, and this cell plate was incubated at room temperature for 10 minutes to stabilize the luminescence signal. A multi-label analyzer was used to read results.
After the cell plate was cultured for 5 days, 25 μL of Promega CellTiter-Glo reagent was added to each well of the cell plate. The cell plate was incubated at room temperature for 10 minutes to stabilize the luminescence signal. A multi-label analyzer was used to read results.
The value of IC50 can be obtained by curve fitting. Table 2 provides the inhibitory activity of the compounds of the present disclosure on Capan-2 cell proliferation.

[3] = Pharmacokinetic evaluation of compounds in mice; type: in vivo; details: mouse, plasma, male CD-1 mice; for clearance / bioavailability / half-life / Vd: IV 0.5 mg/kg; for bioavailability / AUC(0-t): PO 2.5 mg/kg; for half-life: read-out: T1/2 IV (converted); for Vd: read-out: Vdss; for AUC(0-t): read-out: AUC0-last PO; for Cmax: single dose, route not stated (IV 0.5 mg/kg, PO 2.5 mg/kg)
Description: Assay 4: Pharmacokinetic Evaluation of Compounds
Assay purpose: Pharmacokinetics of compounds in […] mice was assayed.
CD-1 mice (male, 7-9 weeks old, Shanghai Slack)
The pharmacokinetic characteristics of rodents after intravenous (IV) and oral (PO) administration of compounds were assayed by standard protocols. In the assay, mice were given a single intravenous injection and oral administration. The vehicle for intravenous injection was water. The oral vehicle was 0.5% hypromellose. Four male CD-1 mice were used in this project. Two mice were administered intravenously at a dose of 0.5 mg/kg, and plasma samples were collected at 0 h (before administration) and 0.083, 0.25, 0.5, 1, 2, 4, 8, and 24 h after administration. The other two mice were orally administered by gavage at a dose of 2.5 mg/kg, and plasma samples were collected at 0 h (before administration) and 0.25, 0.5, 1, 2, 4, 8, and 24 h after administration. Whole blood samples within 24 hours were collected, and centrifuged at 3000 g for 15 minutes. The supernatant was separated to obtain a plasma sample, and protein was precipitated by adding 4 times volume of acetonitrile solution containing internal standard. The mixture was centrifuged to obtain a supernatant, and an equal volume of water was added to the obtained supernatant. The mixture was then centrifuged to obtain a supernatant for injection. The blood drug concentration was quantitatively analyzed by LC-MS/MS analysis method, and pharmacokinetic parameters were calculated, such as peak concentration (Cmax), clearance rate (CL), half-life (T1/2), […] (Vdss), area under the drug-time curve (AUC0-last), and bioavailability (F), etc.
The assay results are shown in Table 4: The compounds of the present disclosure have good pharmacokinetic properties.

[4] = system: human pancreatic cancer Capan-2 xenograft tumor; test: In vivo drug efficacy on Capan-2 transplanted tumor in nude mice; details: for T/C % / TGI %: 5 mg/Kg, BID, 31 days, Capan-2 Xenograft model
Description: 3. Assay of In Vivo Drug Efficacy on Capan-2 Transplanted Tumor in Nude Mice
Capan-2 cells were cultured in McCoy's 5A medium, containing 10% fetal bovine serum FBS, in a 37° C. incubator with 5% CO2. Tumor cells were collected after passaging and growing to a suitable concentration and during the logarithmic growth phase. The cells resuspended in McCoy's 5A medium were counted and the cell suspension was adjusted to a concentration of 2×10^7/mL for inoculation.
Establishment of human pancreatic cancer Capan-2 xenograft tumor. Cells were collected and the concentration was adjusted to 2×10^7 (resuspend with McCoy's 5A medium to a cell suspension containing 50% Martigel). Under aseptic conditions, 0.1 mL of tumor cells was injected subcutaneously into the right back of the mouse, and the number of cells inoculated per mouse was 2×10^6. After the tumor was grown to a certain size, digital vernier calipers was used to measure the length (a) and width (b) of the tumor, and the tumor volume was calculated. The calculation formula of tumor volume (TV) was: TV=a×b^2/2.
Capan-2 tumor cells were inoculated. When the tumor was grown to about 150 cubic millimeters, mice were divided into groups with 6 mice in each group. The day of grouping was regarded as day 0, and the drug was administered on the day of grouping. During the assay, the animal's body weight and tumor size were measured twice a week, and the animal's clinical symptoms were observed and recorded every day. For each administration, the most recently weighed animal body weight was referred to.
The evaluation index of anti-tumor activity is relative tumor proliferation rate T/C (%), wherein T/C (%)>40% means ineffective, and T/C (%)<40% and statistically P<0.05 means effective. The calculation formula of T/C (%) is: T/C (%)=(TRTV/CRTV)×100%. TRTV is relative tumor volume of the treatment group, and CRTV is relative tumor volume of the negative control group. TGI (%)^b tumor inhibition rate=(average tumor volume or weight of negative control group-average tumor volume or weight of administration group)/average tumor volume or weight of negative control group×100%. TGI (%)^a=[(1−(average tumor volume of a certain administration group at the time of measurement-average tumor volume of the administration group at the beginning of the administration))/(average tumor volume of vehicle control group at the time of measurement-average tumor volume of the vehicle control group at the beginning of the administration)]×100%.

| SMILES | pIC50 [1] | pIC50 [2] | clearance [3] | bioavailability [3] | half-life [3] | Vd [3] | AUC(0-t) [3] | Cmax [3] | other results |
| --- | --- | --- | --- | --- | --- | --- | --- | --- | --- |
| Cc1cc(CNc2nccn3c(-c4ccccc4)cnc23)cnc1-c1ccnn1C [Compound 18] | 10.89 | 7.72 | – | – | – | – | – | – | – |
| Cc1cc(-c2ccc(CNc3nccn4c(-c5ccccc5)cnc34)cn2)ccn1 [Compound 19] | 10.77 | 8.34 | – | – | – | – | – | – | – |
| COc1cc(-c2ncc(CNc3nccn4c(-c5ccccc5)cnc34)cc2C)ccn1 [Compound 20] | 9.40 | 7.73 | – | – | – | – | – | – | – |
| Cc1cc(-c2ncc(CNc3nccn4c(-c5ccccc5)cnc34)cc2F)ccn1 [Compound 21] | – | 9.37 | – | – | – | – | – | – | – |
| Cc1cc(-c2ccc(CNc3nccn4c(-c5ccccc5)cnc34)cc2C#N)ccn1 [Compound 22 (formate)] | – | 8.91 | 8.24 mL/min/kg | 71.9% | 3.13 h | 1.09 L/kg | 11.9 µM·h | 1820 nM | – |
| Cc1cc(-c2ccc(CNc3nccn4c(-c5ccccc5)cnc34)cc2N(C)C)ccn1 [Compound 23] | – | 9.13 | – | – | – | – | – | – | – |
| Cc1cc(-c2ncc(CNc3nccn4c(-c5cccc(Cl)c5)cnc34)cc2C)ccn1 [Compound 28 (hydrochloride)] | 9.07 | 8.84 | 4.16 mL/min/kg | 66.6% | 2.6 h | 0.553 L/kg | 15.1 µM·h | 2340 nM | – |
| Cc1cc(-c2ncc(CNc3nccn4c(-c5cccc(F)c5)cnc34)cc2C)ccn1 [Compound 29 (hydrochloride)] | 9.42 | 9.46 | 5.05 mL/min/kg | 89% | 2.78 h | 0.641 L/kg | 17.3 µM·h | 2640 nM | – |
| Cc1cc(-c2ccc(CNc3nccn4c(-c5ccccc5)cnc34)c(F)c2)ccn1 [Compound 31] | – | 8.33 | – | – | – | – | – | – | – |
| Cc1cc(-c2ncc(C(C)Nc3nccn4c(-c5ccccc5)cnc34)cc2C)ccn1 (centres unmarked) [Compound 32 (hydrochloride)] | – | 8.52 | – | – | – | – | – | – | – |
| Cc1cc(-c2ncc(CNc3nccn4c(-c5cc(F)cc(F)c5)cnc34)cc2OCCN(C)C)ccn1 [Compound 33] | – | 8.64 | 35.1 mL/min/kg | 37.4% | 3.69 h | 9.52 L/kg | 0.975 µM·h | 107 nM | T/C % [4]: 17.71%; TGI % [4]: 92.6% |
| Cc1cc(-c2ncc(CNc3nccn4c(-c5cc(F)cc(F)c5)cnc34)cc2OC2CCN(C)CC2)ccn1 [Compound 34] | – | 8.72 | – | – | – | – | – | – | – |
| Cc1cc(-c2ncc(C(CO)Nc3nccn4c(-c5ccccc5)cnc34)cc2C)ccn1 (centres unmarked) [Compound 35] | – | 8.00 | – | – | – | – | – | – | – |
| Cc1cc(-c2ncc(CNc3nccn4c(-c5cc(F)cc(F)c5)cnc34)cc2F)ccn1 [Compound 36 (formate)] | – | 9.68 | 6.5 mL/min/kg | 50.6% | 3.05 h | 1.35 L/kg | 7.23 µM·h | 980 nM | T/C % [4]: 21%; TGI % [4]: 88.86% |
| Cc1cc(-c2ncc(CC(=O)Nc3ccc(-c4cnccn4)cn3)cc2C)ccn1 [LGK974, reference compound] | – | – | – | – | – | – | – | – | inhibitory effect on human pancreatic cancer Capan-2 xenograft tumor (in words) ([4]; 5 mg/Kg BID (twice a day) for 31 days): inhibitory effect; T/C % [4]: 36.33%; TGI % [4]: 78.3% |

From patent US12365686B2, “Compound as porcupine inhibitor and use thereof” (JIANGSU KANION PHARMACEUTICAL CO., LTD., priority 2019, dated 2025)
